Turning to `COc1cc2c(cc1OC)-c1c(-c3nc(C)no3)c(-c3cc(C)c(O)c(C)c3)c(C)n1C(C)C2` (racemic) [Example 1, (5RS)-4-[8,9-Dimethoxy-3,5-dimethyl-1-(3-methyl-[1,2,4]oxadiazol-5-yl)-5,6-dihydro-pyrrolo[2,1-a]isoquinolin-2-yl]-2,6-dimethyl-phenol], the melting point (commonly the temperature of the solid-liquid transition) lay in the range of 182 to 184 °C. `COc1cc2c(cc1OC)-c1c(-c3nc(-c4ccccc4)no3)c(-c3cc(C)c(O)c(C)c3)c(C)n1C(C)C2` (racemic) [Example 3, (5RS)-4-[8,9-Dimethoxy-3,5-dimethyl-1-(3-phenyl-[1,2,4]oxadiazol-5-yl)-5,6-dihydro-pyrrolo[2,1-a]isoquinolin-2-yl]-2,6-dimethyl-phenol] yielded a melting point of 203 to 206 °C. In the case of `COc1cc2c(cc1OC)-c1c(-c3nc(C4CC4)no3)c(-c3cc(C)c(O)c(C)c3)c(C)n1C(C)C2` (stereo not drawn) [Example 2, (5RS)-4-[1-(3-Cyclopropyl-[1,2,4]oxadiazol-5-yl)-8,9-dmethoxy-3,5-dimethyl-5,6-dihydro-pyrrolo[2,1-a]isoquinolin-2-yl]-2,6-dimethyl-phenol], the melting point fell in the range of 174 to 175 °C. In the case of `COc1cc2c(cc1OC)-c1c(-c3nc(-c4ccccc4)no3)c(-c3cc(C)c(O)c(C)c3)c(C)n1CC2` [Example 4, 4-[8,9-Dimethoxy-3-methyl-1-(3-phenyl-[1,2,4]oxadiazol-5-yl)-5,6-dihydro-pyrrolo[2,1-a]isoquinolin-2-yl]-2,6-dimethyl-phenol], the melting point was 191 to 193 °C. Molecule `COc1cc2c(cc1OC)-c1c(-c3nc(C)no3)c(-c3cc(C)c(O)c(C)c3)c(C)n1CC2` [Example 5, 4-[8,9-Dimethoxy-3-methyl-1-(3-methyl-[1,2,4]oxadiazol-5-yl)-5,6-dihydro-pyrrolo[2,1-a]isoquinolin-2-yl]-2,6-dimethyl-phenol] yielded a melting point of 218 to 221 °C.

For the molecule `COc1cc2c(cc1OC)-c1c(-c3ncc(C)o3)c(-c3cc(C)c(O)c(C)c3)c(C)n1CC2` [Example 6, 4-[8,9-Dimethoxy-3-methyl-1-(5-methyl-oxazol-2-yl)-5,6-dihydro-pyrrolo[2,1-a]isoquinolin-2-yl]-2,6-dimethyl-phenol], the melting point fell in the range of 222 to 224 °C.
